Test results reported in EP0447324B1, “2,4-Pyrimidinedione derivatives and medicines containing them” (SANOFI, priority 1990, dated 1991).
Entries after “also recorded” stand apart in the source; their conditions may differ.

Test system: peroxydation des lipides membranaires (suspensions de mitochondries)
Experiment: Inhibition of membrane lipid peroxidation in beef heart mitochondria (malonaldehyde formation, dihydroxyfumaric acid/iron)
Type: biochemical, boeuf
From the text: L'inhibition de la peroxydation lipidique due aux radicaux libres oxygénés, peroxydation particulièrement importante en présence de fer, a été déterminée, in vitro, par la mesure de la quantité d'aldéhyde malonique formée dans des suspensions de mitochondries, mises en présence d'un générateur d'ions superoxydes comme l'acide dihydroxyfumarique.
L'activité inhibitrice de la peroxydation des lipides membranaires des composés a été déterminée comme suit :
a) préparation des mitochondries
On prélève un coeur de boeuf immédiatement après l'abattage de l'animal et le refroidit à 4°C, température à laquelle toutes les opérations suivantes seront effectuées. Le coeur est lavé avec une solution aqueuse tampon à pH 7,4 (TRIS,HCl 10 mM, EDTA 2 mM, KCl 20 mM, saccharose 250 mM) puis les tissus conjonctifs et les graisses sont éliminés. Le muscle est alors haché et le hachis est mis en suspension dans une solution aqueuse tampon à pH 7,4 (TRIS,HCl 10 mM, saccharose 250 mM, EDTA 1 mM) à raison de 700 g de muscle pour 3 litres. Le pH de la suspension est réajusté à 7,4, régulièrement, avant d'isoler le hachis par filtration sur une gaze. […]
Une gamme étalon de malonaldéhyde bis-(diéthylacétal) dilué dans une solution aqueuse de HCl 0,1 N permet de calculer à quelle concentration d'aldéhyde correspond chaque intensité de la fluorescence i. […]

O=c1[nH]c(=O)c2[nH]c(=O)[nH]c2[nH]1 [acide urique]
inhibition de la peroxydation lipidique (result in words): n'inhibe pas; also recorded: inactif | inhibition de la formation de malonaldéhyde (concentration inférieure à 100 »M): n'inhibe pas
